Experimental findings from patent publication US12466846B2, “Siloxane derivatives of amino acids having surface-active properties” (AdvanSix Resins & Chemicals LLC, priority 2022, dated 2025) are described below.

This data set can be described thus: Critical micelle concentration and minimum surface tension from surface tension versus concentration in water, Wilhelmy plate method. It is filed as physicochemical. The settings on record: for plateau value of minimum surface tension that can be reached: in water, Wilhelmy plate, 23° C.; for interfacial / surfactant activity (in words): judged from the plateau minimum surface tension and CMC in water. The text has this:
These properties may be measured and described by various methods. One method by which surfactants may be described is by the molecule's critical micelle concentration (CMC). CMC may be defined as the concentration of a surfactant at which micelles form, and above which all additional surfactant is incorporated into micelles.
As surfactant concentration increases, surface tension decreases. Once the surface is completely overlaid with surfactant molecules, micelles begin to form. This point represents the CMC, as well as the minimum surface tension. Further addition of surfactant will not further affect the surface tension. CMC may therefore be measured by observing the change in surface tension as a function of surfactant concentration. One such method for measuring this value is the Wilhemy plate method. A Wilhelmy plate is usually a thin iridium-platinum plate attached to a balance by a wire and placed perpendicularly to the air-liquid interface. The balance is used to measure the force exerted on the plate by wetting. This value is then used to calculate the surface tension (γ) according to Equation 1: γ=F/l cos θ: Equation 1 wherein I is equal to the wetted perimeter (2w+2d, in which w and d are the plate thickness and width, respectively) and cos θ, the contact angle between the liquid and the plate, is assumed to be […] in the absence of an extant literature value.
Nuclear magnetic resonance (NMR) spectroscopy was performed on a Bruker 500 MHz spectrometer. The critical micelle concentration (CMC) was determined by the Wilhelmy plate method at 23° C. with a tensiometer (DCAT 11, DataPhysics Instruments GmbH) equipped with a Pt—Ir plate. Dynamic surface tension was determined with a bubble pressure tensiometer (Krüss BP100, Krüss GmbH), at 23° C. Contact angle was determined with the optical contact angle goniometer (OCA 15 Pro, DataPhysics GmbH) equipped with a digital camera.

With `C#CC[N+](C)(C)CCCCCC(=O)NCCC[Si](O[Si](C)(C)C)(O[Si](C)(C)C)O[Si](C)(C)C` [Surfactant 4, 6-((3-(1,1,1,5,5,5-hexamethyl-3-((trimethylsilyl)oxy)trisiloxan-3-yl)propyl)amino)-N,N-dimethyl-6-oxo-N-(prop-2-yn-1-yl)hexan-1-aminium bromide], the “plateau value of minimum surface tension that can be reached” value (from here on “plateau value”) is listed as “about 20.54 mN/m” and the “interfacial / surfactant activity (in words)” value is listed as “outstanding interfacial activity”.

With `CCOC(=O)C[N+](C)(C)CCCCCC(=O)NCCC[Si](O[Si](C)(C)C)(O[Si](C)(C)C)O[Si](C)(C)C` [Surfactant 2, N-(2-ethoxy-2-oxoethyl)-6-((3-(1,1,1,5,5,5-hexamethyl-3-((trimethylsilyl)oxy)trisiloxan-3-yl)propyl)amino)-N,N-dimethyl-6-oxohexan-1-aminium bromide], the “plateau value” value is recorded as “around 20.36 mN/m” and the “interfacial / surfactant activity (in words)” value is given as “outstanding interfacial activity”.

Take `C=CC[N+](C)(C)CCCCCC(=O)NCCC[Si](O[Si](C)(C)C)(O[Si](C)(C)C)O[Si](C)(C)C` [Surfactant 3, N-allyl-6-((3-(1,1,1,5,5,5-hexamethyl-3-((trimethylsilyl)oxy)trisiloxan-3-yl)propyl)amino)-N,N-dimethyl-6-oxohexan-1-aminium iodide]: the “plateau value” value is “about 20.67 mN/m” and the “interfacial / surfactant activity (in words)” value is “outstanding interfacial activity”.

On to `C[N+](C)(CCCCCC(=O)NCCC[Si](O[Si](C)(C)C)(O[Si](C)(C)C)O[Si](C)(C)C)CC(=O)O` [Surfactant 9b, N-(carboxymethyl)-6-((3-(1,1,1,5,5,5-hexamethyl-3-((trimethylsilyl)oxy)trisiloxan-3-yl)propyl)amino)-N,N-dimethyl-6-oxohexan-1-aminium bromide], for which the “plateau value” value was “about 29.16 mN/m” and the “interfacial / surfactant activity (in words)” value is “excellent activity”.

Regarding `C[N+](C)(CCCCCC(=O)O)CCCCCC(=O)NCCC[Si](O[Si](C)(C)C)(O[Si](C)(C)C)O[Si](C)(C)C` [Surfactant 9a, N-(5-carboxypentyl)-6-((3-(1,1,1,5,5,5-hexamethyl-3-((trimethylsilyl)oxy)trisiloxan-3-yl)propyl)amino)-N,N-dimethyl-6-oxohexan-1-aminium bromide], the “plateau value” value is “about 20.52 mN/m”.

With `C[N+](C)(CCO)CCCCCC(=O)NCCC[Si](O[Si](C)(C)C)(O[Si](C)(C)C)O[Si](C)(C)C` [Surfactant 8, 6-((3-(1,1,1,5,5,5-hexamethyl-3-((trimethylsilyl)oxy)trisiloxan-3-yl)propyl)amino)-N-(2-hydroxyethyl)-N,N-dimethyl-6-oxohexan-1-aminium iodide], the “plateau value” value is on record as “about 20.41 mN/m” and the “interfacial / surfactant activity (in words)” value was “outstanding interfacial activity”.

Turning to `C[N+](C)(CCCCCC(=O)NCCC[Si](O[Si](C)(C)C)(O[Si](C)(C)C)O[Si](C)(C)C)CCC[N+](C)(C)CCCCCC(=O)NCCC[Si](O[Si](C)(C)C)(O[Si](C)(C)C)O[Si](C)(C)C` [Surfactant 10, N^1,N^3-bis(6-((3-(1,1,1,5,5,5-hexamethyl-3-((trimethylsilyl)oxy)trisiloxan-3-yl)propyl)amino)-6-oxohexyl)-N^1,N^1,N^3,N^3-tetramethylpropane-1,3-diaminium dibromide], the “plateau value” value is on record as “about 22.12 mN/m” and the “interfacial / surfactant activity (in words)” value is “interfacial activity”.

Regarding `C[N+](C)(CCCCCC(=O)NCCC[Si](O[Si](C)(C)C)(O[Si](C)(C)C)O[Si](C)(C)C)Cc1ccccc1` [Surfactant 1, N-benzyl-6-((3-(1,1,1,5,5,5-hexamethyl-3-((trimethylsilyl)oxy)trisiloxan-3-yl)propyl)amino)-N,N-dimethyl-6-oxohexan-1-aminium bromide], the “plateau value” value was “around 20.67 mN/m” and the “interfacial / surfactant activity (in words)” value is “outstanding interfacial activity”.

For `CCOP(=O)(CCC[N+](C)(C)CCCCCC(=O)NCCC[Si](O[Si](C)(C)C)(O[Si](C)(C)C)O[Si](C)(C)C)OCC` [Surfactant 6, N-(3-(diethoxyphosphoryl)propyl)-6-((3-(1,1,1,5,5,5-hexamethyl-3-((trimethylsilyl)oxy)trisiloxan-3-yl)propyl)amino)-N,N-dimethyl-6-oxohexan-1-aminium bromide], the “plateau value” value was “about 20.48 mN/m” and the “interfacial / surfactant activity (in words)” value is “outstanding interfacial activity”.

With `COCCOCC[N+](C)(C)CCCCCC(=O)NCCC[Si](O[Si](C)(C)C)(O[Si](C)(C)C)O[Si](C)(C)C` [Surfactant 5, 6-((3-(1,1,1,5,5,5-hexamethyl-3-((trimethylsilyl)oxy)trisiloxan-3-yl)propyl)amino)-N-(2-(2-methoxyethoxy)ethyl)-N,N-dimethyl-6-oxohexan-1-aminium bromide], the “plateau value” value is “about 20.40 mN/m” and the “interfacial / surfactant activity (in words)” value was “outstanding interfacial activity”.

On to `C[N+](C)(CCCO)CCCCCC(=O)NCCC[Si](O[Si](C)(C)C)(O[Si](C)(C)C)O[Si](C)(C)C` [Surfactant 7, 6-((3-(1,1,1,5,5,5-hexamethyl-3-((trimethylsilyl)oxy)trisiloxan-3-yl)propyl)amino)-N-(3-hydroxypropyl)-N,N-dimethyl-6-oxohexan-1-aminium iodide], for which the “plateau value” value is recorded as “about 20.61 mN/m” and the “interfacial / surfactant activity (in words)” value is “outstanding interfacial activity”.
